# Assay results from PubChem BioAssay (NCI).
#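 1) Cells in 96-well plates. 2) Compound, 48 h, 5 concentrations. 3) Linear interpolation between surrounding doses. 4) Unreached endpoint = highest concentration. TGI denotes the concentration required for complete inhibition of growth.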
# Columns and labels:
# Test in all cases: growth of human tumour cells (NCI), 48 h
# MOLT-4 leukemia = tested on: MOLT-4 leukemia
# SNB-75 CNS = tested on: SNB-75 CNS
# OVCAR-3 ovarian = tested on: OVCAR-3 ovarian
# HCT-15 colon = tested on: HCT-15 colon
# M14 melanoma = tested on: M14 melanoma
# DLD-1 colon = tested on: DLD-1 colon
# UO-31 renal = tested on: UO-31 renal
# SF-539 CNS = tested on: SF-539 CNS
# RPMI-8226 leukemia = tested on: RPMI-8226 leukemia
# LOX IMVI melanoma = tested on: LOX IMVI melanoma
# SF-268 CNS = tested on: SF-268 CNS
# KM20L2 colon = tested on: KM20L2 colon
# SK-MEL-5 melanoma = tested on: SK-MEL-5 melanoma
# A498 renal = tested on: A498 renal
# LXFL 529 NSCLC = tested on: LXFL 529 NSCLC
# UACC-257 melanoma = tested on: UACC-257 melanoma
# CCRF-CEM leukemia = tested on: CCRF-CEM leukemia
# KM12 colon = tested on: KM12 colon
# COLO 205 colon = tested on: COLO 205 colon
# IGROV1 ovarian = tested on: IGROV1 ovarian
# SN12C renal = tested on: SN12C renal
# ACHN renal = tested on: ACHN renal
# SNB-78 CNS = tested on: SNB-78 CNS
# SK-MEL-28 melanoma = tested on: SK-MEL-28 melanoma
# OVCAR-8 ovarian = tested on: OVCAR-8 ovarian
# U251 CNS = tested on: U251 CNS
# HCC-2998 colon = tested on: HCC-2998 colon
# DMS 114 small cell lung = tested on: DMS 114 small cell lung
# OVCAR-4 ovarian = tested on: OVCAR-4 ovarian
# HOP-92 NSCLC = tested on: HOP-92 NSCLC
# OVCAR-5 ovarian = tested on: OVCAR-5 ovarian
# HL-60(TB) leukemia = tested on: HL-60(TB) leukemia
# NCI-H522 lung = tested on: NCI-H522 lung
# 786-0 renal = tested on: 786-0 renal
# HOP-62 NSCLC = tested on: HOP-62 NSCLC
# NCI-H23 lung = tested on: NCI-H23 lung
# SW-620 colon = tested on: SW-620 colon
# SR leukemia = tested on: SR leukemia
# TK-10 renal = tested on: TK-10 renal
# NCI-H460 lung = tested on: NCI-H460 lung
# XF 498 CNS = tested on: XF 498 CNS
# SK-OV-3 ovarian = tested on: SK-OV-3 ovarian
# SNB-19 CNS = tested on: SNB-19 CNS
# SF-295 CNS = tested on: SF-295 CNS
# NCI-H226 lung = tested on: NCI-H226 lung
# MALME-3M melanoma = tested on: MALME-3M melanoma
# HCT-116 colon = tested on: HCT-116 colon
# DMS 273 small cell lung = tested on: DMS 273 small cell lung
# HT29 colon = tested on: HT29 colon
# M19-MEL melanoma = tested on: M19-MEL melanoma
# A549 NSCLC = tested on: A549 NSCLC
# SK-MEL-2 melanoma = tested on: SK-MEL-2 melanoma
# HOP-18 NSCLC = tested on: HOP-18 NSCLC
# K-562 leukemia = tested on: K-562 leukemia
# EKVX NSCLC = tested on: EKVX NSCLC
# UACC-62 melanoma = tested on: UACC-62 melanoma
# CAKI-1 renal = tested on: CAKI-1 renal
# MCF7 breast = tested on: MCF7 breast
# RXF 393 renal = tested on: RXF 393 renal
# NCI/ADR-RES ovarian = tested on: NCI/ADR-RES ovarian
# MDA-MB-231 breast = tested on: MDA-MB-231 breast
# DU-145 prostate = tested on: DU-145 prostate
# BT-549 breast = tested on: BT-549 breast
# PC-3 prostate = tested on: PC-3 prostate
# T-47D breast = tested on: T-47D breast
# HS 578T breast = tested on: HS 578T breast
# MDA-N = tested on: MDA-N
# MDA-MB-435 = tested on: MDA-MB-435
smiles,measurement,setting,value
Cc1c(-c2coc(-c3ccccc3)n2)c(=O)n(-c2ccccc2)n1C,TGI,MOLT-4 leukemia,86.9 µM
same,TGI,SNB-75 CNS,> 100 µM
same,TGI,OVCAR-3 ovarian,> 100 µM
same,TGI,HCT-15 colon,> 100 µM
same,TGI,M14 melanoma,> 100 µM
same,TGI,DLD-1 colon,> 100 µM
same,TGI,UO-31 renal,> 100 µM
same,TGI,SF-539 CNS,> 100 µM
same,TGI,RPMI-8226 leukemia,> 100 µM
same,TGI,LOX IMVI melanoma,> 100 µM
same,TGI,SF-268 CNS,> 100 µM
same,TGI,KM20L2 colon,> 100 µM
same,TGI,SK-MEL-5 melanoma,61 µM
same,TGI,A498 renal,> 100 µM
same,TGI,LXFL 529 NSCLC,> 100 µM
same,TGI,UACC-257 melanoma,> 100 µM
same,TGI,CCRF-CEM leukemia,> 100 µM
same,TGI,KM12 colon,> 100 µM
same,TGI,COLO 205 colon,> 100 µM
same,TGI,IGROV1 ovarian,> 100 µM
same,TGI,SN12C renal,> 100 µM
same,TGI,ACHN renal,> 100 µM
same,TGI,SNB-78 CNS,> 100 µM
same,TGI,SK-MEL-28 melanoma,> 100 µM
same,TGI,OVCAR-8 ovarian,> 100 µM
same,TGI,U251 CNS,> 100 µM
same,TGI,HCC-2998 colon,> 100 µM
same,TGI,DMS 114 small cell lung,> 100 µM
same,TGI,OVCAR-4 ovarian,> 100 µM
same,TGI,HOP-92 NSCLC,> 100 µM
same,TGI,OVCAR-5 ovarian,> 100 µM
same,TGI,HL-60(TB) leukemia,> 100 µM
same,TGI,NCI-H522 lung,> 100 µM
same,TGI,786-0 renal,> 100 µM
same,TGI,HOP-62 NSCLC,> 100 µM
same,TGI,NCI-H23 lung,> 100 µM
same,TGI,SW-620 colon,> 100 µM
same,TGI,SR leukemia,> 100 µM
same,TGI,TK-10 renal,> 100 µM
same,TGI,NCI-H460 lung,> 100 µM
same,TGI,XF 498 CNS,81.7 µM
same,TGI,SK-OV-3 ovarian,> 100 µM
same,TGI,SNB-19 CNS,> 100 µM
same,TGI,SF-295 CNS,> 100 µM
same,TGI,NCI-H226 lung,> 100 µM
same,TGI,MALME-3M melanoma,> 100 µM
same,TGI,HCT-116 colon,> 100 µM
same,TGI,DMS 273 small cell lung,> 100 µM
same,TGI,HT29 colon,> 100 µM
same,TGI,M19-MEL melanoma,> 100 µM
same,TGI,A549 NSCLC,> 100 µM
same,TGI,SK-MEL-2 melanoma,> 100 µM
CCCN(CCC)CCc1cc(C(C)=O)n(S(=O)(=O)c2ccc(C)cc2)c1,TGI,MOLT-4 leukemia,> 100 µM
same,TGI,HOP-18 NSCLC,> 100 µM
same,TGI,SNB-75 CNS,> 100 µM
same,TGI,OVCAR-3 ovarian,> 100 µM
same,TGI,K-562 leukemia,> 100 µM
same,TGI,HCT-15 colon,> 100 µM
same,TGI,M14 melanoma,40.2 µM
same,TGI,DLD-1 colon,> 100 µM
same,TGI,UO-31 renal,> 100 µM
same,TGI,SF-539 CNS,> 100 µM
same,TGI,RPMI-8226 leukemia,> 100 µM
same,TGI,EKVX NSCLC,> 100 µM
same,TGI,SF-268 CNS,> 100 µM
same,TGI,SK-MEL-5 melanoma,> 100 µM
same,TGI,A498 renal,> 100 µM
same,TGI,LXFL 529 NSCLC,> 100 µM
same,TGI,UACC-257 melanoma,> 100 µM
same,TGI,CCRF-CEM leukemia,> 100 µM
same,TGI,KM12 colon,> 100 µM
same,TGI,COLO 205 colon,> 100 µM
same,TGI,IGROV1 ovarian,> 100 µM
same,TGI,SN12C renal,> 100 µM
same,TGI,ACHN renal,> 100 µM
same,TGI,SNB-78 CNS,> 100 µM
same,TGI,SK-MEL-28 melanoma,> 100 µM
same,TGI,OVCAR-8 ovarian,> 100 µM
same,TGI,U251 CNS,> 100 µM
same,TGI,UACC-62 melanoma,> 100 µM
same,TGI,HCC-2998 colon,> 100 µM
same,TGI,DMS 114 small cell lung,> 100 µM
same,TGI,OVCAR-4 ovarian,> 100 µM
same,TGI,HOP-92 NSCLC,> 100 µM
same,TGI,OVCAR-5 ovarian,> 100 µM
same,TGI,NCI-H522 lung,> 100 µM
same,TGI,786-0 renal,> 100 µM
same,TGI,HOP-62 NSCLC,> 100 µM
same,TGI,NCI-H23 lung,> 100 µM
same,TGI,SW-620 colon,> 100 µM
same,TGI,SR leukemia,> 100 µM
same,TGI,TK-10 renal,> 100 µM
same,TGI,NCI-H460 lung,> 100 µM
same,TGI,SK-OV-3 ovarian,> 100 µM
same,TGI,SNB-19 CNS,> 100 µM
same,TGI,SF-295 CNS,> 100 µM
same,TGI,NCI-H226 lung,> 100 µM
same,TGI,MALME-3M melanoma,> 100 µM
same,TGI,HCT-116 colon,> 100 µM
same,TGI,DMS 273 small cell lung,> 100 µM
same,TGI,HT29 colon,> 100 µM
same,TGI,CAKI-1 renal,> 100 µM
same,TGI,M19-MEL melanoma,> 100 µM
same,TGI,A549 NSCLC,> 100 µM
same,TGI,SK-MEL-2 melanoma,> 100 µM
CN(C)C(=S)/N=c1\ssc(=S)n1Cc1cccs1,TGI,MOLT-4 leukemia,> 100 µM
same,TGI,HOP-18 NSCLC,> 100 µM
same,TGI,MCF7 breast,> 30.4 µM
same,TGI,SNB-75 CNS,15.2 µM
same,TGI,OVCAR-3 ovarian,6.57 µM
same,TGI,K-562 leukemia,> 55.8 µM
same,TGI,HCT-15 colon,> 100 µM
same,TGI,M14 melanoma,> 100 µM
same,TGI,DLD-1 colon,> 100 µM
same,TGI,UO-31 renal,> 100 µM
same,TGI,SF-539 CNS,15.1 µM
same,TGI,RPMI-8226 leukemia,> 100 µM
same,TGI,LOX IMVI melanoma,> 100 µM
same,TGI,EKVX NSCLC,> 94.6 µM
same,TGI,SF-268 CNS,> 100 µM
same,TGI,RXF 393 renal,23.9 µM
same,TGI,KM20L2 colon,3.57 µM
same,TGI,SK-MEL-5 melanoma,> 16.1 µM
same,TGI,A498 renal,> 100 µM
same,TGI,LXFL 529 NSCLC,> 100 µM
same,TGI,UACC-257 melanoma,> 75.4 µM
same,TGI,CCRF-CEM leukemia,> 60.2 µM
same,TGI,KM12 colon,> 100 µM
same,TGI,COLO 205 colon,6.41 µM
same,TGI,NCI/ADR-RES ovarian,5.1 µM
same,TGI,IGROV1 ovarian,> 100 µM
same,TGI,SN12C renal,> 100 µM
same,TGI,MDA-MB-231 breast,> 100 µM
same,TGI,ACHN renal,> 100 µM
same,TGI,SNB-78 CNS,> 100 µM
same,TGI,SK-MEL-28 melanoma,> 100 µM
same,TGI,OVCAR-8 ovarian,52.9 µM
same,TGI,U251 CNS,69.9 µM
same,TGI,UACC-62 melanoma,> 56.7 µM
same,TGI,HCC-2998 colon,> 100 µM
same,TGI,DU-145 prostate,> 100 µM
same,TGI,DMS 114 small cell lung,5.6 µM
same,TGI,OVCAR-4 ovarian,> 91.7 µM
same,TGI,BT-549 breast,> 100 µM
same,TGI,HOP-92 NSCLC,> 89.1 µM
same,TGI,OVCAR-5 ovarian,> 100 µM
same,TGI,HL-60(TB) leukemia,13.9 µM
same,TGI,NCI-H522 lung,9.6 µM
same,TGI,786-0 renal,52.5 µM
same,TGI,HOP-62 NSCLC,81.3 µM
same,TGI,PC-3 prostate,> 100 µM
same,TGI,NCI-H23 lung,> 100 µM
same,TGI,SW-620 colon,> 100 µM
same,TGI,T-47D breast,> 100 µM
same,TGI,SR leukemia,> 100 µM
same,TGI,HS 578T breast,5.17 µM
same,TGI,TK-10 renal,> 81.6 µM
same,TGI,NCI-H460 lung,> 89.7 µM
same,TGI,MDA-N,2.85 µM
same,TGI,SK-OV-3 ovarian,> 90 µM
same,TGI,SNB-19 CNS,> 90.9 µM
same,TGI,SF-295 CNS,21.8 µM
same,TGI,NCI-H226 lung,> 100 µM
same,TGI,MALME-3M melanoma,74.7 µM
same,TGI,HCT-116 colon,> 69.6 µM
same,TGI,HT29 colon,> 100 µM
same,TGI,CAKI-1 renal,> 91.4 µM
same,TGI,M19-MEL melanoma,> 100 µM
same,TGI,A549 NSCLC,> 91.4 µM
same,TGI,SK-MEL-2 melanoma,25.7 µM
same,TGI,MDA-MB-435,2.71 µM
